Laboratory results taken from ChEMBL document CHEMBL1154399, “Induction of voriconazole metabolism by rifampin in a patient with acute myeloid leukemia: importance of interdisciplinary communication to prevent treatment errors with complex medications” (Antimicrob Agents Chemother, 2007).

Legend:
Assay type in all cases: ADME, organism-based
Homo sapiens [1] = assay: Effect on voriconazole metabolism in po dosed […] infection patient assessed as decrease in voriconazole exposure levels after 30 days; design: scale not given: the % may be the effect or the level left; conditions: in vivo, 720 h
Homo sapiens [2] = assay: Induction of voriconazole metabolism in po dosed […] infection patient assessed as increase in voriconazole N-oxide metabolite levels after 30 days; conditions: in vivo, 720 h
Homo sapiens [3] = assay: Induction of voriconazole metabolism in po dosed […] infection patient assessed as increase in hydroxyvoriconazole levels after 30 days; conditions: in vivo, 720 h
Homo sapiens [4] = assay: Induction of voriconazole metabolism in po dosed […] infection patient assessed as increase in dihydroxyvoriconazole levels after 30 days; conditions: in vivo, 720 h
[5] = Cmax in […] infection patient at 400 mg, po administered daily; design: dose 400 mg, route oral; conditions: human, in vivo
[6] = AUC (0 to infinity) in […] infection patient at 400 mg, po administered daily; design: dose 400 mg, route oral, time infinity; conditions: human, plasma
[7] = Cmax in […] infection patient at 400 mg, po administered daily after 36 days of drug therapy and 30 days of rifampin coadministration; design: dose 400 mg, route oral; conditions: human, in vivo
[8] = AUC (0 to infinity) in […] infection patient at 400 mg, po administered daily after 36 days of drug therapy and 30 days of rifampin coadministration; design: dose 400 mg, route oral, time infinity; conditions: human, plasma

Compound	Activity (Homo sapiens [1])	fold change (FC) (Homo sapiens [2])	fold change (FC) (Homo sapiens [3])	fold change (FC) (Homo sapiens [4])	Cmax [5]	AUC(0-inf) [6]	Cmax [7]	AUC(0-inf) [8]
CO[C@H]1/C=C/O[C@@]2(C)Oc3c(C)c(O)c4c(O)c(c(/C=N/N5CCN(C)CC5)c(O)c4c3C2=O)NC(=O)/C(C)=C\C=C\[C@H](C)[C@H](O)[C@@H](C)[C@@H](O)[C@@H](C)[C@H](OC(C)=O)[C@@H]1C [RIFAMPIN]	99%	45	178	422	–	–	–	–
C[C@@H](c1ncncc1F)[C@](O)(Cn1cncn1)c1ccc(F)cc1F [VORICONAZOLE]	–	–	–	–	3920 ng/mL	27400 ng·h/mL	38 ng/mL	145 ng·h/mL
